This note sets out measurements from patent US8802661B2, “C-28 amides of modified C-3 betulinic acid derivatives as HIV maturation inhibitors” (priority 2010, dated 2014).

Each structure is given as a SMILES string. Bounds are passed on as bounds.

In general, EC50 refers to the concentration that produces a half-maximal response.

This assay has as its system recombinant NL4-3 virus (Renilla luciferase in nef, Gag P373S). The assay is described as follows: HIV Cell Culture Assay (luciferase reporter virus in MT-2 cells). The class given is cell-based. To be noted: NL43, read-out: EC50 Group. As for the experimental part: MT-2 cells and 293T cells were obtained from the NIH AIDS Research and Reference Reagent Program. MT-2 cells were propagated in RPMI 1640 media supplemented with 10% heat inactivated fetal bovine serum, […]. The 293T cells were propagated in DMEM media supplemented with 10% heat inactivated fetal bovine serum (FBS), 100 units/ml penicillin G and 100 μg/ml streptomycin. The proviral DNA clone of NL4-3 was obtained from the NIH AIDS Research and Reference Reagent Program. A recombinant NL4-3 virus, in which a section of the nef gene from NL4-3 was replaced with the Renilla luciferase gene, was used as a reference virus. In addition, residue Gag P373 was converted to P373S. Briefly, the recombinant virus was prepared by transfection of the altered proviral clone of NL4-3. Transfections were performed in 293T cells using LipofectAMINE PLUS from Invitrogen (Carlsbad, Calif.), according to manufacturer's instruction. The virus was titered in MT-2 cells using luciferase enzyme activity as a marker. Luciferase was quantitated using the Dual Luciferase kit from Promega (Madison, Wis.), with modifications to the manufacturer's protocol. The diluted Passive Lysis solution was pre-mixed with the re-suspended Luciferase Assay Reagent and the re-suspended Stop & Glo Substrate (2:1:1 ratio). Fifty (50) μL of the mixture was added to each aspirated well on assay plates and luciferase activity was measured immediately on a Wallac TriLux (Perkin-Elmer). Antiviral activities of inhibitors toward the recombinant virus were quantified by measuring luciferase activity in cells infected for 4-5 days with NLRluc recombinants in the presence serial dilutions of the inhibitor. Table 1 is the key for the data in Table 2.
In general terms: Reporter assays use an easily measured gene product as a stand-in for the process of interest.
Consider `C=C(C)[C@@H]1CC[C@]2(C(=O)NC)CC[C@]3(C)[C@H](CC[C@@H]4[C@@]5(C)CC=C(c6ccc(C(=O)O)cc6)C(C)(C)[C@@H]5CC[C@]43C)[C@@H]12` [Example 26, 4-((1R,3aS,5aR,5bR,7aR,11aS,11bR,13aR,13bR)-5a,5b,8,8,11a-pentamethyl-3a-(methylcarbamoyl)-1-(prop-1-en-2-yl)-2,3,3a,4,5,5a,5b,6,7,7a,8,11,11a,11b,12,13,13a,13b-octadecahydro-1H-cyclopenta[a]chrysen-9-yl)benzoic acid], for which the concentration for a half-maximal effect (EC50) is under 100 nM.
The same measure for `C=C(C)[C@@H]1CC[C@]2(C(=O)NCCN(C)C)CC[C@]3(C)[C@H](CC[C@@H]4[C@@]5(C)CC=C(c6ccc(C(=O)O)s6)C(C)(C)[C@@H]5CC[C@]43C)[C@@H]12` [Example 66, 5-((1R,3aS,5aR,5bR,7aR,11aS,11bR,13aR,13bR)-3a-(2-(dimethylamino)ethylcarbamoyl)-5a,5b,8,8,11a-pentamethyl-1-(prop-1-en-2-yl)-2,3,3a,4,5,5a,5b,6,7,7a,8,11,11a,11b,12,13,13a,13b-octadecahydro-1H-cyclopenta[a]chrysen-9-yl)thiophene-2-carboxylic acid]: under 100 nM; for `C=C(C)[C@@H]1CC[C@]2(C(=O)NCCN3CCC(F)(F)CC3)CC[C@]3(C)[C@H](CC[C@@H]4[C@@]5(C)CC=C(c6ccc(C(=O)O)cc6)C(C)(C)[C@@H]5CC[C@]43C)[C@@H]12` [Example 118, 4-((1R,3aS,5aR,5bR,7aR,11aS,11bR,13aR,13bR)-3a-(2-(4,4-difluoropiperidin-1-yl)ethylcarbamoyl)-5a,5b,8,8,11a-pentamethyl-1-(prop-1-en-2-yl)-2,3,3a,4,5,5a,5b,6,7,7a,8,11,11a,11b,12,13,13a,13b-octadecahydro-1H-cyclopenta[a]chrysen-9-yl)benzoic acid]: under 100 nM; for `C=C(C)[C@@H]1CC[C@]2(C(=O)NCC(C)(C)N)CC[C@]3(C)[C@H](CC[C@@H]4[C@@]5(C)CC=C(c6ccc(C(=O)O)cc6)C(C)(C)[C@@H]5CC[C@]43C)[C@@H]12` [Example 38, 4-((1R,3aS,5aR,5bR,7aR,11aS,11bR,13aR,13bR)-3a-(2-amino-2-methylpropylcarbamoyl)-5a,5b,8,8,11a-pentamethyl-1-(prop-1-en-2-yl)-2,3,3a,4,5,5a,5b,6,7,7a,8,11,11a,11b,12,13,13a,13b-octadecahydro-1H-cyclopenta[a]chrysen-9-yl)benzoic acid]: under 100 nM.
The same measure for `C=C(C)[C@@H]1CC[C@]2(C(=O)NCCN(C)CC(=O)O)CC[C@]3(C)[C@H](CC[C@@H]4[C@@]5(C)CC=C(c6ccc(C(=O)O)cc6)C(C)(C)[C@@H]5CC[C@]43C)[C@@H]12` [Example 80, 4-((1R,3aS,5aR,5bR,7aR,11aS,11bR,13aR,13bR)-3a-(2-((carboxymethyl)(methyl)amino)ethylcarbamoyl)-5a,5b,8,8,11a-pentamethyl-1-(prop-1-en-2-yl)-2,3,3a,4,5,5a,5b,6,7,7a,8,11,11a,11b,12,13, 13a,13b-octadecahydro-1H-cyclopenta[a]chrysen-9-yl)benzoic acid]: under 100 nM; for `C=C(C)[C@@H]1CC[C@]2(C(=O)NCC(O)CN)CC[C@]3(C)[C@H](CC[C@@H]4[C@@]5(C)CC=C(c6ccc(C(=O)O)cc6)C(C)(C)[C@@H]5CC[C@]43C)[C@@H]12` (stereo partly drawn) [Example 64, 4-((1R,3aS,5aR,5bR,7aR,11aS,11bR,13aR,13bR)-3a-(3-amino-2-hydroxypropylcarbamoyl)-5a,5b,8,8,11a-pentamethyl-1-(prop-1-en-2-yl)-2,3,3a,4,5,5a,5b,6,7,7a,8,11,11a,11b,12,13,13a,13b-octadecahydro-1H-cyclopenta[a]chrysen-9-yl)benzoic acid]: under 100 nM.
